Assay results: patent publication US7829665B2 (priority 2005, dated 2010)
Read-outs that look alike come from different tables or passages of the source.

Tests used:
[1] = biological target: T1, full-length NS3/NS4A-2 (HCV NS3 protease) (Hepatitis C virus genotype 1a, UniProt P27958); test: NS3-NS4 protease assay / NS3 inhibition assay (RETS1 substrate, fluorescence kinetic read); assay type: biochemical
T1 construct: Recombinant E. coli or Baculovirus full-length NS3 was diluted to 3.33 μM with assay buffer; made in house; host or cells: E. coli or baculovirus (BV) expression system
T1 sequence (P27958 1027-1657): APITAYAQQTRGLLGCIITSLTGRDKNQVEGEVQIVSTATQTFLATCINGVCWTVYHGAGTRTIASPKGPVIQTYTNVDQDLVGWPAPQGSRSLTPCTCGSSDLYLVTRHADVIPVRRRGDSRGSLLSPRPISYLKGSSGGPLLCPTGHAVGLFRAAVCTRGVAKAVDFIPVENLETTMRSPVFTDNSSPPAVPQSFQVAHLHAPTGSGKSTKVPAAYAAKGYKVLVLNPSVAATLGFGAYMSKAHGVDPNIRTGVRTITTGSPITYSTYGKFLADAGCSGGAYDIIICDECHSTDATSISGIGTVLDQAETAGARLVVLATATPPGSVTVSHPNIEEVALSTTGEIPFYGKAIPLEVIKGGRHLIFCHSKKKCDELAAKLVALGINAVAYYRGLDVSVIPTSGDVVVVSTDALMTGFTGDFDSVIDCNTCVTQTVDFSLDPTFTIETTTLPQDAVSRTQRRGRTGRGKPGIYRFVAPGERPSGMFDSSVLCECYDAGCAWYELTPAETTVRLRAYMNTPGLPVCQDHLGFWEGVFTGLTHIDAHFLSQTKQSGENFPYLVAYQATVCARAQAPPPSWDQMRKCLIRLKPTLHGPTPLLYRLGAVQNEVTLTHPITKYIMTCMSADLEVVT
Summary of the method: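 Ki values come from IC50 fits corrected via Ki=IC50/(1+[S]/Km), with Km 2.03 μM for E. coli and 1.74 μM for baculovirus full-length NS3. Enzyme (2 or 3 nM NS3, respectively, complexed with NS4A-2) sat with compound, top concentration 50 microM, for 10 min at room temperature. Cleavage of RETS1 (8 μM working solution) was then followed by fluorescence (335/495 nm) over 30 min.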

[2] = system: HCV sub-genomic replicon in GS4.3 cells (HuH-7 hepatoma cells); test: Quantitation by ELISA of Neomycin phosphotransferase II (NPTII) in the HCV sub-genomic replicon, GS4.3; assay type: cell-based, hepatitis C virus; conditions: Hepatitis C virus, Huh-7
Summary of the method: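 Replicon-bearing HuH-7 (GS4.3) cells were exposed to compounds for 72 h in G418-free medium, top final concentration 10 μM, 1% DMSO. Lysates went to an NPTII ELISA read at 450 nm. Signal was normalised to DMSO-treated wells and EC50 was derived by four-parameter curve fitting.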

[3] = recombinant E. coli or Baculovirus full-length NS3 with NS4A-2, read-out: NS3-NS4 IC50
[4] = GS4.3 cells, 72 h incubation, NPTII ELISA, read-out: Replicon EC50

Row | Structure (SMILES) | IC50 [1, 3] [nM] | EC50 [2, 4] [nM] | EC50 ([2]; Table 26, read-out: EC50) [nM] | IC50 [1] [nM]
1 | CC(C)(C)OC(=O)N[C@H]1CCCCC/C=C\[C@@H]2C[C@@]2(C(=O)NCC(F)F)NC(=O)[C@@H]2C[C@@H](OC(=O)N3Cc4cccc(F)c4C3)CN2C1=O [Compound 612] | < 1000 | < 1000 | – | –
2 | CC(C)(C)OC(=O)N[C@H]1CCCCC/C=C\[C@@H]2C[C@@]2(C(=O)NS(=O)(=O)NC2CC2)NC(=O)[C@@H]2C[C@@H](OC(=O)N3Cc4cccc(Cl)c4C3)CN2C1=O [Compound 213] | < 100 | < 100 | – | –
3 | Cc1ccc(CN[C@H]2CCCCC/C=C\[C@@H]3C[C@@]3(C(=O)NS(=O)(=O)C3CC3)NC(=O)[C@@H]3C[C@@H](OC(=O)N4Cc5cccc(F)c5C4)CN3C2=O)o1 [Compound 909] | < 100 | < 100 | – | –
4 | O=C(CCC(F)(F)F)N[C@H]1CCCCC/C=C\[C@@H]2C[C@@]2(C(=O)O)NC(=O)[C@@H]2C[C@@H](OC(=O)N3Cc4ccccc4C3)CN2C1=O [Compound 136] | < 100 | > 10000 | – | –
5 | O=C1N[C@]2(C(=O)NS(=O)(=O)C3CC3)C[C@H]2/C=C\CCCCC[C@H](NCC(F)(F)F)C(=O)N2C[C@H](OC(=O)N3Cc4cccc(F)c4C3)C[C@@H]12 [Compound 921] | < 100 | < 1000 | – | –
6 | O=C(Cc1ccccc1)N[C@H]1CCCCC/C=C\[C@@H]2C[C@@]2(C(=O)NS(=O)(=O)C2CC2)NC(=O)C2CCCN2C1=O (some centres unmarked) [Compound 2144] | > 10000 | – | < 1000 | –
7 | O=C1N[C@]2(C(=O)NS(=O)(=O)C3CC3)C[C@H]2/C=C\CCCCC[C@H](NCCCC(F)(F)F)C(=O)N2C[C@H](OC(=O)N3Cc4cccc(F)c4C3)C[C@@H]12 [Compound 902] | < 100 | < 100 | – | –
8 | O=C(N[C@H]1CCCCC/C=C\[C@@H]2C[C@@]2(C(=O)NS(=O)(=O)C2CCCC2)NC(=O)[C@@H]2C[C@@H](OC(=O)N3CCc4ccccc4C3)CN2C1=O)OC1CCCC1 [Compound 186] | < 100 | < 1000 | – | –
9 | CC(C)(C)OC(=O)N[C@H]1CCCCC/C=C\[C@@H]2C[C@@]2(C(=O)NC2CC2)NC(=O)[C@@H]2C[C@@H](OC(=O)N3Cc4cccc(F)c4C3)CN2C1=O [Compound 609] | < 100 | < 1000 | – | –
10 | O=C(N[C@H]1CCCCC/C=C\[C@@H]2C[C@@]2(C(=O)NS(=O)(=O)NCC2CC2)NC(=O)[C@@H]2C[C@@H](OC(=O)N3Cc4cccc(F)c4C3)CN2C1=O)OC1CCCC1 [Compound 205] | < 100 | < 1000 | – | –
11 | CNC(=O)NC(=O)[C@@]12C[C@H]1/C=C\CCCCC[C@H](NC(=O)OC(C)(C)C)C(=O)N1C[C@H](OC(=O)N3Cc4ccccc4C3)C[C@H]1C(=O)N2 [Compound 702] | < 1000 | < 1000 | – | –
12 | CC(C)(C)OC(=O)N[C@H]1CCCCC/C=C\[C@@H]2C[C@@]2(C(=O)NCCO)NC(=O)[C@@H]2C[C@@H](OC(=O)N3Cc4cccc(F)c4C3)CN2C1=O [Compound 620] | < 1000 | < 10000 | – | –
13 | COc1cc2c(cc1OC)CN(C(=O)O[C@@H]1C[C@H]3C(=O)N[C@]4(C(=O)NS(=O)(=O)N5CCOCC5)C[C@H]4/C=C\CCCCC[C@H](NC(=O)OC(C)(C)C)C(=O)N3C1)CC2 [Compound 208] | < 100 | < 10000 | – | –
14 | CC(C)(C)OC(=O)N[C@H]1CCCCC/C=C\[C@@H]2C[C@@]2(C(=O)O)NC(=O)[C@@H]2C[C@@H](OC(=O)N3Cc4ccc(N5CCOCC5)cc4C3)CN2C1=O [Compound 176] | < 100 | > 10000 | – | –
15 | CC(C)(C)OC(=O)N[C@H]1CCCCC/C=C\[C@@H]2C[C@@]2(C(=O)O)NC(=O)[C@@H]2C[C@@H](OC(=O)N3Cc4c(Cl)ccc(Cl)c4C3)CN2C1=O [Compound 144] | < 100 | < 10000 | – | –
16 | N[C@H]1CCCCC/C=C\[C@@H]2C[C@@]2(C(=O)NS(=O)(=O)c2ccc(Cl)s2)NC(=O)[C@@H]2C[C@@H](OC(=O)N3Cc4cccc(Cl)c4C3)CN2C1=O [Compound 168] | – | < 10000 | – | < 100
17 | Cc1cccc(C)c1CN[C@H]1CCCCC/C=C\[C@@H]2C[C@@]2(C(=O)NS(=O)(=O)C2CC2)NC(=O)[C@@H]2C[C@@H](OC(=O)N3Cc4cccc(F)c4C3)CN2C1=O [Compound 918] | < 100 | < 1000 | – | –
18 | O=C(N[C@H]1CCCCC/C=C\[C@@H]2C[C@@]2(C(=O)O)NC(=O)[C@@H]2C[C@@H](OC(=O)N3Cc4cccc(F)c4C3)CN2C1=O)C1CCC1 [Compound 122] | < 100 | < 10000 | – | –
19 | CC(C)(C)OC(=O)N[C@H]1CCCCC/C=C\[C@@H]2C[C@@]2(C(N)=O)NC(=O)[C@@H]2C[C@@H](OC(=O)N3Cc4cccc(F)c4C3)CN2C1=O [Compound 648] | < 1000 | > 10000 | – | –

Row | Structure (SMILES) | IC50 [1, 3] [nM] | EC50 [2, 4] [nM] | EC50 ([2]; Table 26, read-out: EC50) [nM] | IC50 [1] [nM]
20 | CN(C)C(=O)NC(=O)[C@@]12C[C@H]1/C=C\CCCCC[C@H](NC(=O)OC(C)(C)C)C(=O)N1C[C@H](OC(=O)N3Cc4cccc(F)c4C3)C[C@H]1C(=O)N2 [Compound 235] | < 100 | < 100 | – | –
21 | O=C1N[C@]2(C(=O)NS(=O)(=O)C3CC3)C[C@H]2/C=C\CCCCC[C@H](NCc2ccc(Cl)o2)C(=O)N2C[C@H](OC(=O)N3Cc4cccc(F)c4C3)C[C@@H]12 [Compound 914] | < 100 | < 100 | – | –
22 | CC(C)(C)OC(=O)N[C@H]1CCCCC/C=C\[C@@H]2C[C@@]2(C(=O)NS(=O)(=O)c2cc(Cl)sc2Cl)NC(=O)[C@@H]2C[C@@H](OC(=O)N3Cc4cccc(Cl)c4C3)CN2C1=O [Compound 172] | < 100 | < 100 | – | –
23 | CC(C)(C)OC(=O)N[C@H]1CCCCC/C=C\[C@@H]2C[C@@]2(C(=O)NS(=O)(=O)c2ccc(Cl)s2)NC(=O)[C@@H]2C[C@@H](OC(=O)N3Cc4cccc(Cl)c4C3)CN2C1=O [Compound 164] | < 100 | < 100 | – | –
24 | O=C1N[C@]2(C(=O)NS(=O)(=O)C3CC3)C[C@H]2/C=C\CCCCC[C@H](N(CC2CC2)CC2CC2)C(=O)N2C[C@H](OC(=O)N3Cc4cccc(F)c4C3)C[C@@H]12 [Compound 911] | < 1000 | < 10000 | – | –
25 | O=C1N[C@]2(C(=O)NS(=O)(=O)C3CC3)C[C@H]2/C=C\CCCCC[C@H](Nc2nc(-c3ccccc3)cs2)C(=O)N2C[C@H](OC(=O)N3Cc4cccc(Cl)c4C3)C[C@@H]12 [Compound 929] | < 100 | < 100 | – | –
26 | O=C1N[C@]2(C(=O)NS(=O)(=O)C3CC3)C[C@H]2/C=C\CCCCC[C@H](Nc2nc(C(F)(F)F)cs2)C(=O)N2C[C@H](OC(=O)N3Cc4cccc(F)c4C3)C[C@@H]12 [Compound 926] | < 100 | < 100 | – | –
27 | O=C(N[C@H]1CCCCC/C=C\[C@@H]2C[C@@]2(C(=O)NS(=O)(=O)C2CC2)NC(=O)[C@@H]2CCCN2C1=O)C1CC1 [Compound 317] | < 1000 | > 10000 | – | –
28 | CC(C)(C)OC(=O)N[C@H]1CCCCCCC[C@@H]2C[C@@]2(C(=O)NS(=O)(=O)C2CC2)NC(=O)[C@@H]2C[C@@H](OC(=O)N3Cc4cccc(F)c4C3)CN2C1=O [Compound 268] | < 100 | < 100 | – | –
29 | CN(C)[C@H]1CCCCC/C=C\[C@@H]2C[C@@]2(C(=O)NS(=O)(=O)C2CC2)NC(=O)[C@@H]2C[C@@H](OC(=O)N3Cc4cccc(F)c4C3)CN2C1=O [Compound 908] | < 1000 | < 10000 | – | –
30 | CC(C)(C)OC(=O)N[C@H]1CCCCC/C=C\[C@@H]2C[C@@]2(C(=O)NS(=O)(=O)C2CC2)NC(=O)[C@@H]2C[C@@H](OC(=O)Nc3nc4ccccc4s3)CN2C1=O [Compound 140] | < 100 | < 1000 | – | –
31 | CC(C)(C)OC(=O)N[C@H]1CCC(F)(F)CC/C=C\[C@@H]2C[C@@]2(C(=O)NS(=O)(=O)C2CC2)NC(=O)[C@@H]2C[C@@H](OC(=O)N3Cc4ccccc4C3)CN2C1=O [Compound 1009] | < 100 | < 100 | – | –
32 | CC(C)(C)OC(=O)N[C@H]1CCCCC/C=C\[C@@H]2C[C@@]2(C(=O)NCc2cccc(C(O)C(F)(F)F)c2)NC(=O)[C@@H]2C[C@@H](OC(=O)N3Cc4cccc(F)c4C3)CN2C1=O (some centres unmarked) [Compound 605] | < 1000 | < 1000 | – | –
33 | CC(C)(C)OC(=O)N[C@H]1CCCCC/C=C\[C@@H]2C[C@@]2(C(=O)NS(=O)(=O)c2cccs2)NC(=O)[C@@H]2C[C@@H](OC(=O)N3Cc4cccc(Cl)c4C3)CN2C1=O [Compound 166] | < 100 | < 100 | – | –
34 | CC(C)(C)c1csc(N[C@H]2CCCCC/C=C\[C@@H]3C[C@@]3(C(=O)NS(=O)(=O)C3CC3)NC(=O)[C@@H]3C[C@@H](OC(=O)N4Cc5cccc(F)c5C4)CN3C2=O)n1 [Compound 925] | < 100 | < 100 | – | –
35 | CN(Cc1ccccc1)C(=O)O[C@@H]1C[C@H]2C(=O)N[C@]3(C(=O)NS(=O)(=O)C4CC4)C[C@H]3/C=C\CCCCC[C@H](NC(=O)OC(C)(C)C)C(=O)N2C1 [Compound 245] | < 100 | < 1000 | – | –
36 | CN(C)C(=S)N[C@H]1CCCCC/C=C\[C@@H]2C[C@@]2(C(=O)NS(=O)(=O)C2CC2)NC(=O)[C@@H]2C[C@@H](OC(=O)N3Cc4cccc(F)c4C3)CN2C1=O [Compound 922] | < 100 | < 1000 | – | –
37 | COc1ccc(CC(=O)N[C@H]2CCCCC/C=C\[C@@H]3C[C@@]3(C(=O)NS(=O)(=O)C3CC3)NC(=O)[C@@H]3CCCN3C2=O)cc1 [Compound 2138, (1S,4R,6S,14S)N—((Z)-4-Cyclopropanesulfonylaminocarbonyl-2,15-dioxo-3,16-diaza-tricyclo[14.3.0.0^4,6]nonadec-7-ene-14-yl)-2-(4-methoxy-phenyl)-acetamide] | > 10000 | – | < 1000 | –
